Source: patent US8426596B2, “Process of producing bleach boosters” (BASF Aktiengesellschaft, priority 2005, dated 2013)
Counter-ions that a name gives are not always drawn.

Legend:
Format in all cases: biochemical
Termamyl (alpha amylase) = target: T1, Termamyl (alpha amylase) (Bacillus licheniformis, UniProt P06278); experiment: Organic Catalyst/Enzyme Compatibility Test (alpha amylase activity assay), Termamyl; settings: (Ac/Ab)x100; peracetic acid 5.0 ppm; organic catalyst 0.5 ppm; 40° C.; sample at 7 min 45 s
T1 construct: purchased Novozymes, Denmark
Procedure: (§1) Organic Catalyst/Enzyme Compatibility Test
(§2) The test described below uses an alpha amylase activity assay to measure the impact of organic catalysts on the enzyme.
(§3) Equipment. UV/Vis spectrophotometer capable of measuring @ 415 nm, heated magnetic stirrer capable of 40° C., 5 ml Luer lock syringe and filters (Acrodisc 0.45 ? μm), pH meter, and balance (4-place analytical).
(§4) Reagents. Merck Amylase Kit (Merck Eurolab, Cat. No. 1.19718.0001); Trizma Base (Sigma Cat # T-1503, or equivalent); Calcium Chloride Dihydrate (Sigma Cat # C-5080, or equivalent); Sodium Thiosulfate Pentahydrate (Sigma Cat # S-6672 or equivalent); Hydrochloric Acid (VWR Cat # JT9535-0, or equivalent); Hardness solution (CTC Group, 3.00 gr/cc or equivalent); Sodium Percarbonate; Peracetic Acid (Aldrich, Cat. #26933-6 or equivalent); Amylase enzymes: Termamyl, Natalase, and Duramyl (Novozymes, Denmark); Granular detergent matrix containing no enzyme, organic catalyst or bleaching agents.
(§5) 1.) Solution Preparation: Prepare the Following:
(§6) • a.) TRIS Assay Buffer. Prepare 1 liter of 0.1M TRIS buffer, 0.5% sodium thiosulphate (W/V), 0.11% calcium chloride (w/v) at pH 8.3. • b.) Blank Detergent Solution. Prepare one liter of 0.5% enzyme and bleach free granular detergent product in deionized water (W/V) that is 250 ppm H2O2 (0.77 gm percarbonate) and 10 gpg hardness (880 UI of hardness). • c.) Termamyl, Duramyl and Natalase Stock. Make 100 ml solutions each of a 0.1633 mg active Termamyl per ml TRIS Buffer, a 0.1159 mg active Natalase per ml TRIS Buffer, and a 0.1596 mg active Duramyl per ml TRIS Buffer. • d.) Organic catalyst stocks. Make a 500 ppm in methanol solution of μm. • e.) Peracetic acid stock. Make a 3955 ppm peracetic acid solution in deionized water. • f.) Amylase reagent. Follow Merck kit instructions for preparing flacons (containers) 1 and 2 using flacon 3 and subsequent mixing of flacons 1 and 2 to produce the final reagent used in the amylase activity analysis. 2.) Sample Analysis • a.) Analysis of sample with enzyme only: Add 100 ml of blank detergent solution to a 150 ml beaker. Place beaker on heated stir plate and bring temperature to 40° C. with stirring. Add Y μl of enzyme stock to the beaker where Y=612 μL for Duramyl, 306 μl for Termamyl, or 918 μl for Natalase. Spike only enzyme of interest. Stir sample for 1 minute. Start timer. At 7 minutes 45 seconds, pull a sample and filter it using a 0.45 μm syringe filter (5 ml syringe). Mix 6 μl of filtered sample with 250 μL of amylase reagent in a cuvette and place the cuvette in a UV/VIS spectrophotometer and monitor change in absorbance at 415 nm. Determine length of time (tE) to the nearest second required to obtain an absorbance reading of 1.0 for each enzyme. Use each enzyme's tE in Steps 2.)b.) and 2.)c.) below. • b.) Analysis of sample with enzyme and peracetic acid only. Follow Step 2.)a.) except after enzyme addition, allow solution to stir for 1 minute then add 127 μl of peracetic acid stock and start timer. Pull sample at 7 minutes 45 seconds as in Step 2.)a.). Once sample and reagent are mixed, record the absorbance at tE for the respective enzyme. Designate such absorbance Ab. • c.) Analysis of sample with enzyme, peracetic acid, and organic catalyst. […] Once sample and reagent are mixed, record the absorbance at tE for the respective enzyme. Designate such absorbance A, 3.) Calculate Enzyme Compatibility Value (ECV) • a.) Calculate the ECV for each specific enzyme: termamyl (ECVter), duramyl (ECVdur) and natalase (ECVnat). […]

Duramyl (alpha amylase) = experiment: Organic Catalyst/Enzyme Compatibility Test (alpha amylase activity assay), Duramyl; settings: (Ac/Ab)x100; peracetic acid 5.0 ppm; organic catalyst 0.5 ppm; 40° C.; sample at 7 min 45 s
Procedure: as §1, §2, §3, §4, §5, §6

Natalase (alpha amylase) = experiment: Organic Catalyst/Enzyme Compatibility Test (alpha amylase activity assay), Natalase; settings: (Ac/Ab)x100; peracetic acid 5.0 ppm; organic catalyst 0.5 ppm; 40° C.; sample at 7 min 45 s
Procedure: as §1, §2, §3, §4, §5, §6

[1] = system: Termamyl, Duramyl and Natalase (alpha amylases); experiment: Organic Catalyst/Enzyme Compatibility Test, average over the three amylases; settings: ECV=(ECVter+ECVdur+ECVnat)/3; peracetic acid 5.0 ppm; organic catalyst 0.5 ppm
Procedure: as §1, §2, §3, §4, §5, §6

T1 sequence (P06278 30-512): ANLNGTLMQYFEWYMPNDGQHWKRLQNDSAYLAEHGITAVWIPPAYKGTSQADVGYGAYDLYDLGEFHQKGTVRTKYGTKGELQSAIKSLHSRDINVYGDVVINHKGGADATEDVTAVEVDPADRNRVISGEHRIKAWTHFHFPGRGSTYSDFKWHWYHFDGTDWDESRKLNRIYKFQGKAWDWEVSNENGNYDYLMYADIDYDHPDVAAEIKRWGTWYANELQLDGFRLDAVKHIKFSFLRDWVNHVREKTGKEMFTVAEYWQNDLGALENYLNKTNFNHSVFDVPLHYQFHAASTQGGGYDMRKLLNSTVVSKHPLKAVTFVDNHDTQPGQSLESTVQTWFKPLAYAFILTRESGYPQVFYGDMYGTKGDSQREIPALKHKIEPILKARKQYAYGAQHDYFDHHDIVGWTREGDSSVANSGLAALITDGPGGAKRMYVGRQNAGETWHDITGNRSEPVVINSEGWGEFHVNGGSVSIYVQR

| Structure (SMILES) | Enzyme Compatibility Value ECVter (Termamyl (alpha amylase)) | Enzyme Compatibility Value ECVdur (Duramyl (alpha amylase)) | Enzyme Compatibility Value ECVnat (Natalase (alpha amylase)) | Enzyme Compatibility Value ECV [1] |
| --- | --- | --- | --- | --- |
| O=S(=O)([O-])OCC[N+]1=Cc2ccccc2C(Cc2ccccc2)(Cc2ccccc2)C1 [Entry 3, 3,4-dihydro-4,4-di(phenylmethyl)-2-[2′-(sulfooxy)ethyl]-isoquinolinium, internal salt] | 101 | 100 | 103 | 101 |
| O=S(=O)([O-])CCC[N+]1=Cc2ccccc2C(Cc2ccccc2)(Cc2ccccc2)C1 [Entry 4, 3,4-dihydro-4,4-dibenzyl-2-(3-sulfopropyl)isoquinolinium, Internal salt] | 102 | 99 | 104 | 102 |
| Cc1ccc(CC2(Cc3ccc(C)cc3)C[N+](CCCS(=O)(=O)[O-])=Cc3ccccc32)cc1 [Entry 5, 3,4-dihydro-4,4-di(4-methylphenylmethyl)-2-(3-sulfopropyl)-isoquinolinium, internal salt] | 103 | 99 | 99 | 100 |
| CC(C)(C)OCC(C[N+]1=Cc2ccccc2CC1)OS(=O)(=O)[O-] (centres unmarked) [Entry 1, Sulfuric acid mono-[2-(3,4-dihydro-isoquinolin-2-yl)-1-((1,1-di-methylethoxy)methyl)ethyl] ester, internal salt, reference compound] | 51 | 86 | 58 | 65 |
| CCCCC(CC)COCC(C[N+]1=Cc2ccccc2CC1)OS(=O)(=O)[O-] (centres unmarked) [Entry 2, Sulfuric acid mono-[2-(3,4-dihydro-isoquinolin-2-yl)-1-(2-ethyl-hexyloxymethyl)-ethyl] ester, internal salt, reference compound] | 54 | 90 | 57 | 67 |
